Measured values reported in patent publication US20230374007A1, “COMPOUNDS AND THEIR USE IN TREATING CANCER” (AstraZeneca AB, priority 2020, published 2023).

Target: T1, cereblon (CRBN)—DNA damage protein 1 (DDB1) complex (Homo sapiens, UniProt Q96SW2)
T1 construct: encoding amino acid residues 1 to 442 (Uniprot Q96SW2); hexahistidine (N); thrombin cleavage site (N); made in house; host or cells: Sf9 insect cells (baculovirus co-infection)
Assay: Cereblon HTRF binding assay
Description: The synthesized sequence was designed to encode an N-terminal hexahistidine tag, a thrombin cleavage site, an AviTag™ and a tobacco etch virus protease (TEV) cleavage site followed by the CBRN sequence. The resulting protein sequence is listed below.
The synthesized sequence was designed to encode an N-terminal hexahistidine tag, a tobacco etch virus protease (TEV) cleavage site followed by the DDB1 sequence. […] The linker amino acid residues are underlined and shown in italics.
Baculovirus production of CBRN and DDB1: Recombinant bacmid and P2 virus of CBRN and DDB1 was generated according to the Bac-to-Bac Baculovirus Expression System manual (ThermoFisher Scientific).
Protein Purification: Protein purification was initiated by thawing cells (resuspended in Lysis buffer) at r.t. Once thawed, NaCl was added to a final concentration of 200 mM, followed by 0.01 μL/mL Benzonase™ and the lysate was incubated with slow stirring for 20 minutes. After the freeze-thaw lysis, the whole cell lysate was centrifuged at 48 000 g for 45 minutes and all following purification steps were done on ice or in cold-room. Supernatant (cell lysate) was mixed with 1 mL/50 mL lysate Ni Sepharose™ 6 Fast Flow (Cytiva) pre-equilibrated with Wash buffer (50 mM Tris-Cl pH 8, 20 mM Imidazole, 500 mM NaCl, 10% Glycerol, 1 mM TCEP) and incubated with slow stirring for 1 h. The mix was loaded in a 70 mL open gravity flow column, washed with 10 bed volumes of Wash buffer, and stepwise eluted with 300 mM imidazole in Wash buffer. […] After biotinylation, the CBRN/DDB1 complex was purified by Size Exclusion Chromatography on a HiLoad™ 26/60 Superdex™ 200 column equilibrated in SEC buffer (50 mM HEPES pH 7.5, 200 mM NaCl, 5% glycerol, 1 mM TCEP) before flash-freezing in liquid nitrogen and storage at −80° C.
The assay mixture in a total volume of 4 μL consists of 50 mM Tris-HCl at pH 7.5, 100 mM NaCl, 0.01% Pluronic F127, 1 mM TCEP, 500 μM EDTA, 0.2 nM CRBN-DDB1, 0.2 nM terbium cryptate labeled streptavidin, and 2 nM Cyanine 5-labeled lenalidomide as the probe. […] Reagents were dispensed into the 384-well assay microplate using a Certus Flex liquid dispenser. After incubation for 2 h at r.t., the assay plates were read on a PHERAstar FSX plate reader (BMG Labtech) in the HTRF mode. The raw data from PHERAstar was directly imported into Genedata Screener for analysis. […] The ratio was normalized to positive and negative controls on the same plates to calculate percent inhibition: I %=(I−NC)/(PC−NC), where I are readings from the compound treated well, NC and PC are average readings from negative control wells and positive control wells, respectively. IC50 values were obtained by fitting the I % vs. compound concentration [I] to I %=S0+(SInf−S0)/(1+((IC50/[I])^n)), where S0 is the fitted activity level at zero concentration of test compound, SInf is the fitted activity level at […] concentration of test compound, and n is the hill coefficient of the curve.
The IC50 values reported below are the calculated mean result of one or more experiments.

T1 sequence (Q96SW2 with tags, fused parts or gaps): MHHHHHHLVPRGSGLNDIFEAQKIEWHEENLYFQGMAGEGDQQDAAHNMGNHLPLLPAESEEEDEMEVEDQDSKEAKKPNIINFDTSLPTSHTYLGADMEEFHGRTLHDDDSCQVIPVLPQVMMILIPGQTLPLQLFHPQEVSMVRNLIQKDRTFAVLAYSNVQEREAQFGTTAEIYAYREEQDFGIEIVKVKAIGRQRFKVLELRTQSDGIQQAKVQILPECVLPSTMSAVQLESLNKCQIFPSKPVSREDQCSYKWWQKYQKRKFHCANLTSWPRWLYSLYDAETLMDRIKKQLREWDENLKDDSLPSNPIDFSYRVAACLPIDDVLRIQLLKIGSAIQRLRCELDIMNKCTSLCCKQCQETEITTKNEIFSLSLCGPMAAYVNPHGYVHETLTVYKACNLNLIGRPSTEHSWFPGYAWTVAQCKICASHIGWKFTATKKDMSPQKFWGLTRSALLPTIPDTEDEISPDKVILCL

Compound	IC50 [nM]
O=C1CCN(c2ccc3ccn(C4CCNCC4)c3c2)C(=O)N1 [Example 120, 1-(1-(Piperidin-4-yl)-1H-indol-6-yl)dihydropyrimidine-2,4 (1H,3H)-dione]	2200
O=C1CCN(c2cccc3ncsc23)C(=O)N1 [Example 2, 1-(Benzo[d]thiazol-7-yl)dihydropyrimidine-2,4 (1H,3H)-dione]	2000
CN1CCc2ccc(N3CCC(=O)NC3=O)cc21 [Example 23, 1-(1-Methylindolin-6-yl)dihydropyrimidine-2,4 (1H,3H)-dione]	1060
CN1CCc2ccc(N3CCC(=O)NC3=O)cc2C1 [Example 29, 1-(2-Methyl-1,2,3,4-tetrahydroisoquinolin-7-yl)dihydropyrimidine-2,4 (1H,3H)-dione]	8010
Cn1cc2cc(N3CCC(=O)NC3=O)ccc2n1 [Example 8, 1-(2-Methyl-2H-indazol-5-yl)dihydropyrimidine-2,4 (1H,3H)-dione]	4570
Cc1c(N2CCC(=O)NC2=O)cnc2cc[nH]c12 [Example 49, 1-(7-Methyl-1H-pyrrolo[3,2-b]pyridin-6-yl)dihydropyrimidine-2,4 (1H,3H)-dione]	124
CNC(=O)Cn1ccc2c(N3CCC(=O)NC3=O)cccc21 [Example 70, 2-(4-(2,4-Dioxotetrahydropyrimidin-1 (2H)-yl)-1H-indol-1-yl)-N-methylacetamide]	1010
CN1CCc2cc(N3CCC(=O)NC3=O)ccc2C1 [Example 31, 1-(2-Methyl-1,2,3,4-tetrahydroisoquinolin-6-yl)dihydropyrimidine-2,4 (1H,3H)-dione]	4100
O=C(O)Cc1c[nH]c2cc(N3CCC(=O)NC3=O)ccc12 [Example 65, 2-(6-(2,4-Dioxotetrahydropyrimidin-1 (2H)-yl)-1H-indol-3-yl)acetic acid]	755
O=C1CCN(c2cccc3ncoc23)C(=O)N1 [Example 4, 1-(Benzo[d]oxazol-7-yl)dihydropyrimidine-2,4 (1H,3H)-dione]	3880
O=C1CCN(c2ccc3c(c2)CCNC3)C(=O)N1 [Example 30, 1-(1,2,3,4-Tetrahydroisoquinolin-6-yl)dihydropyrimidine-2,4 (1H,3H)-dione]	8680
CN1Cc2ccc(N3CCC(=O)NC3=O)cc2C1 [Example 25, 1-(2-Methylisoindolin-5-yl)dihydropyrimidine-2,4 (1H,3H)-dione]	2960
O=C1CCN(c2ccn3ccnc3c2)C(=O)N1 [Example 7, 1-(Imidazo[1,2-a]pyridin-7-yl)dihydropyrimidine-2,4 (1H,3H)-dione]	3000
O=C1CCN(c2ccc3nc(C4CCNCC4)oc3c2)C(=O)N1 [Example 96, 1-(2-(Piperidin-4-yl)benzo[d]oxazol-6-yl)dihydropyrimidine-2,4 (1H,3H1)-dione]	3740
O=C1CCN(c2cc(Cl)c3cc[nH]c3c2)C(=O)N1 [Example 53, 1-(4-Chloro-1H-indol-6-yl)dihydropyrimidine-2,4 (1H,3H)-dione]	244
O=C1CCN(c2c(F)ccc3[nH]ccc23)C(=O)N1 [Example 63, 1-(5-Fluoro-1H-indol-4-yl)dihydropyrimidine-2,4 (1H,3H)-dione]	235
O=C1CCN(c2ccc3oc(=O)[nH]c3c2)C(=O)N1 [Example 47, 1-(2-Oxo-2,3-dihydrobenzo[d]oxazol-5-yl)dihydropyrimidine-2,4 (1H,3H)-dione]	3060
O=C1CCN(c2ccc3c(c2)cc2n3CCNC2)C(=O)N1 [Example 104, 1-(1,2,3,4-Tetrahydropyrazino[1,2-a]indol-8-yl)dihydropyrimidine-2,4 (1H,3H)-dione]	283
CN1CCC(c2nc3ccc(N4CCC(=O)NC4=O)cc3o2)CC1 [Example 97, 1-(2-(1-Methylpiperidin-4-yl)benzo[d]oxazol-6-yl)dihydropyrimidine-2,4 (1H,3H)-dione]	2420
O=C1CCN(c2cccc3c2CNC3=O)C(=O)N1 [Example 43, 1-(1-Oxoisoindolin-4-yl)dihydropyrimidine-2,4 (1H,3H)-dione]	3630
